ChEMBL document CHEMBL1131087, “New cyclooxygenase-2/5-lipoxygenase inhibitors. 3. 7-tert-butyl-2, 3-dihydro-3,3-dimethylbenzofuran derivatives as gastrointestinal safe antiinflammatory and analgesic agents: variations at the 5 position” (J Med Chem, 1998)
Active and inactive are the calls of the source. The rule behind the calls is not given here.

What was measured:
Rattus norvegicus [1] = experiment: Inhibition of paw swelling relative to the tebufelone in rat. Value was reported as Carrageenan paw edema index; type: functional
[2] = Comparative activity versus Dihydrodimethylbenzofurans in the CPE (Carrageenan paw edema) assay; -, inactive; conditions: Rattus norvegicus
Rattus norvegicus [3] = species: Rattus norvegicus; experiment: Compound was tested for its analgesic activity in phenylquinone-induced abdominal constriction assay(PAC); type: functional; conditions: Abdomen
Rattus norvegicus [4] = experiment: Analgesic activity (50 mg/kg, sc)in phenylquinone-induced abdominal constriction assay(PAC); type: functional, Abdomen
Rattus norvegicus [5] = species: Rattus norvegicus; experiment: Comparative activity versus Dihydrodimethylbenzofurans in the CPE assay; -, indicates inactive; type: functional, organism-based
Rattus norvegicus [6] = experiment: Compound was tested at a dose of 50 mg/kg for its antiinflammatory activity in carrageenan paw edema (CPE) assay
Rattus norvegicus [7] = experiment: Comparative activity versus Dihydrodimethylbenzofurans in the CPE (Carrageenan paw edema) assay; -, inactive; type: functional, organism-based

Row | SMILES | CPE index (Rattus norvegicus [1]) | ED50 (Rattus norvegicus [3]) [mg/kg] | other results
1 | CC(C)(C)c1cc(C(N)=O)cc2c1OCC2(C)C | 0.07 | – | Activity [2]: inactive
2 | COc1ccc2cc([C@H](C)C(=O)O)ccc2c1 [NAPROXEN] | 1.06 | 1.3 | Inhibition (Rattus norvegicus [4]): 54%
3 | CC(C)(C)c1cc(-c2cn3c(n2)S(=O)(=O)C=C3)cc2c1OCC2(C)C | 0.19 | – | Activity (Rattus norvegicus [5]): inactive
4 | C#CCCCC(=O)c1cc(C(C)(C)C)c(O)c(C(C)(C)C)c1 [TEBUFELONE] | – | 3.7 | inhibition in vivo at 50 mg/kg (Rattus norvegicus [6]): 51.1%
5 | CN(C)C(=O)c1cc(C(C)(C)C)c2c(c1)C(C)(C)CO2 | 0.36 | – | Activity (Rattus norvegicus [7]): inactive
